# How the values were obtained:
# Experiment in all cases: -log10 GI50 (growth inhibition 50%) (-log10(M)); higher = more potent growth inhibition
# SUM185PE = tested on: SUM185PE
# In short: (§1)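 The reported figure is the negative logarithm of GI50, defined as the molar concentration that produces the set level of growth inhibition. The logarithm is base 10. It comes from a Gompertz curve fitted by nonlinear least squares to 72-hour luminescence data from breast cancer cell lines given nine doses in 1:5 serial dilution, in triplicate, with a time-zero plate as reference. A < qualifier marks values equal to the top dose.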
# 184B5 = tested on: 184B5
# In short: as §1
# 184A1 = tested on: 184A1
# In short: as §1
# MCF12A = tested on: MCF12A
# In short: as §1
# MDAMB361 = tested on: MDAMB361
# In short: as §1
# HCC1937 = tested on: HCC1937
# In short: as §1
# BT549 = tested on: BT549
# In short: as §1
# HCC70 = tested on: HCC70
# In short: as §1
# ZR75B = tested on: ZR75B
# In short: as §1
# T47D_KBluc = tested on: T47D_KBluc
# In short: as §1
# LY2 = tested on: LY2
# In short: as §1
# HCC1954 = tested on: HCC1954
# In short: as §1
# HCC1419 = tested on: HCC1419
# In short: as §1
# HCC1428 = tested on: HCC1428
# In short: as §1
# HCC2185 = tested on: HCC2185
# In short: as §1
# MDAMB231 = tested on: MDAMB231
# In short: as §1
# SUM52PE = tested on: SUM52PE
# In short: as §1
# MX1 = tested on: MX1
# In short: as §1
# UACC812 = tested on: UACC812
# In short: as §1
# MDAMB157 = tested on: MDAMB157
# In short: as §1
-log10 GI50 (MDAMB361),-log10 GI50 (HCC1937),-log10 GI50 (BT549),-log10 GI50 (T47D_KBluc),-log10 GI50 (HCC1954),-log10 GI50 (HCC1419),-log10 GI50 (HCC1428),-log10 GI50 (HCC2185),-log10 GI50 (MDAMB231),-log10 GI50 (MDAMB157),Structure (SMILES),-log10 GI50 (SUM185PE),-log10 GI50 (184B5),-log10 GI50 (184A1),-log10 GI50 (MCF12A),-log10 GI50 (HCC70),-log10 GI50 (ZR75B),-log10 GI50 (LY2),-log10 GI50 (SUM52PE),-log10 GI50 (MX1),-log10 GI50 (UACC812)
4.18,4.65,4.37,4.5,4.76,< 4.18,4.5,4.81,< 4.18,4.76,COc1ccc(C2=N[C@@H](c3ccc(Cl)cc3)[C@@H](c3ccc(Cl)cc3)N2C(=O)N2CCNC(=O)C2)c(OC(C)C)c1 [Nutlin 3a],4.54,5.3,5.46,5.82,4.73,5.69,5.29,4.74,4.65,5.45
< 4.3,< 4.3,< 4.3,< 4.3,5.84,4.75,< 4.3,< 4.3,< 4.3,< 4.3,Cn1cnc2c(F)c(Nc3ccc(Br)cc3Cl)c(C(=O)NOCCO)cc21 [AZD6244],< 4.3,6.9,6.5,6.69,5.75,< 4.3,< 4.3,5.01,6.34,< 4.3
4.57,4.69,4.45,4.67,5.04,4.74,4.8,4.82,4.82,4.76,Cc1ccc(NC(=O)c2ccc(CN3CCN(C)CC3)cc2)cc1Nc1nccc(-c2cccnc2)n1 [Imatinib],4.91,4.63,4.86,4.37,4.77,4.63,4.65,4.65,4.65,4.98
8.21,5.68,5.87,5.45,6.91,8.53,5.76,5.86,5.51,5.61,CN(C)C/C=C/C(=O)Nc1cc2c(Nc3ccc(F)c(Cl)c3)ncnc2cc1O[C@H]1CCOC1 [BIBW2992],5.46,7.22,7.74,7.06,6.33,5.52,5.65,5.47,6.58,8.55
4.41,4.54,< 4.18,< 4.18,4.84,< 4.18,4.45,4.99,< 4.18,4.88,CCC[C@H](N[C@H]1CCc2cc(F)cc(F)c2C1)C(=O)Nc1cn(C(C)(C)CNCC(C)(C)C)cn1,4.84,4.86,5.87,< 4.18,5.63,< 4.18,4.68,5.24,5.76,< 4.18
6.15,5.84,5.96,5.9,5.81,5.88,6.33,6.47,5.58,6.13,O=C(/C=C/C#Cc1cccc(NS(=O)(=O)c2ccccc2)c1)NO [Oxamflatin],6.51,6.06,5.86,5.76,6.36,6.41,5.89,6.23,6.32,5.75
5.09,4.82,5.13,5.4,4.96,4.9,5.73,4.79,5.26,4.68,CC(/C=C/C(=O)NO)=C\[C@@H](C)C(=O)c1ccc(N(C)C)cc1 [Trichostatin A],4.76,4.34,4.73,4.71,4.84,5.3,4.99,5.58,4.79,5.05
2.82,2.56,2.57,2.76,2.52,2.93,3.13,2.88,2.16,2.68,CCCC(CCC)C(=O)O [Valproic acid],2.84,3.07,3,2.74,2.99,2.71,2.96,2.91,3.45,2.59
4.97,5.15,4.99,< 4.48,5.01,5.66,5.16,< 4.48,4.91,5.09,Cc1c(O)cccc1C(=O)N[C@@H](CSc1ccccc1)[C@H](O)CN1C[C@H]2CCCC[C@H]2C[C@H]1C(=O)NC(C)(C)C [Nelfinavir],5.24,5.33,5.48,4.64,4.75,5.13,5.05,4.75,5.15,< 4.48
7.03,5.58,6.54,6.71,5.35,6.68,6.94,5.62,7.03,7.25,NS(=O)(=O)OC[C@@H]1C[C@@H](n2ccc3c(N[C@H]4CCc5ccccc54)ncnc32)C[C@@H]1O [MLN4924],7.27,6.93,6.24,7.04,5.47,6.84,7,6.41,5.7,5.98
5.44,5.25,5.44,5.31,5.45,4.73,5.13,5.18,5.47,5.71,C[C@@H](Oc1cc(-c2cnn(C3CCNCC3)c2)cnc1N)c1c(Cl)ccc(F)c1Cl,5.33,5.42,5.78,5.38,5.46,5.64,5.8,6.28,5.84,5.02
6.24,4.9,6.3,4.58,6.82,4.72,< 4.18,< 4.18,6.46,6.3,COC(=O)Nc1nc2cc(C(=O)c3ccccc3)ccc2[nH]1 [Mebendazole],6.3,< 4.18,< 4.18,5.74,6.86,6.81,6.32,6.85,6.42,4.9
4.3,4.5,4.36,< 4.3,< 4.3,< 4,< 4,5.06,< 4.3,< 4.3,COc1cccc(-c2cc(=O)c3ccccc3o2)c1N,4.88,< 4.3,< 4.3,< 4.3,< 4.3,4.59,< 4.3,4.92,4.39,4.65
5.1,5.1,5.75,4.49,5.32,4.81,5.11,6.48,4.95,5.43,Cc1cc(Nc2cc(N3CCN(C)CC3)nc(Sc3ccc(NC(=O)C4CC4)cc3)n2)n[nH]1 [VX-680],5.62,5.74,5.64,6.33,5.6,6.79,5.21,6.42,6.81,4.79
5.78,4.95,6.53,6.46,6.57,6.51,6.33,6.6,4.67,6.97,CCNCCCCNCCCCNCCCCNCCCCNC/C=C/CNCCCCNCCCCNCCCCNCCCCNCC,6.68,5.62,6.32,6.2,6.55,6.38,5.18,6.81,6.57,6.78
< 3.88,< 3.88,< 3.88,< 3.88,4.52,4.31,4.09,4.33,< 3.88,< 3.88,N#Cc1c(-c2ccccc2)cc(-c2cc(Br)ccc2O)[nH]c1=O [TCS PIM-11],4.67,5.61,5.16,4.36,4.47,< 3.88,< 3.88,4.72,4.73,< 3.88
4.84,4.71,5.21,5.13,5.06,5.19,5.79,5.39,5.32,5.06,CNC(=O)c1c(F)cccc1Nc1nc(Nc2cc3c(cc2OC)CCN3C(=O)CN(C)C)nc2[nH]ccc12,5.48,6.32,6.4,5.74,5.18,5.01,6.27,5.68,5.29,5.31

Structure (SMILES),-log10 GI50 (MDAMB361),-log10 GI50 (HCC1937),-log10 GI50 (BT549),-log10 GI50 (T47D_KBluc),-log10 GI50 (HCC1954),-log10 GI50 (HCC1419),-log10 GI50 (HCC1428),-log10 GI50 (HCC2185),-log10 GI50 (MDAMB231),-log10 GI50 (MDAMB157),-log10 GI50 (SUM185PE),-log10 GI50 (184B5),-log10 GI50 (184A1),-log10 GI50 (MCF12A),-log10 GI50 (HCC70),-log10 GI50 (ZR75B),-log10 GI50 (LY2),-log10 GI50 (SUM52PE),-log10 GI50 (MX1),-log10 GI50 (UACC812)
O=S(=O)(CC1CS1)c1ccc(Oc2ccccc2)cc1 (stereo not given) [SB-3CT],< 3.78,< 4,5.17,< 3.78,< 4,< 3.78,4.24,4.33,< 3.78,< 3.78,4.75,< 3.78,< 3.78,< 3.78,< 3.78,4.62,< 4,4.33,4.85,< 4
C[C@]12O[C@H](C[C@]1(O)CO)n1c3ccccc3c3c4c(c5c6ccccc6n2c5c31)CNC4=O [Lestaurtinib],6.45,6.21,6.19,5.17,5.31,5.94,6.3,5.52,6.14,6.46,7.2,6.49,5.87,6.33,6.71,6.34,6.6,6.87,7.17,5.75
